The results in this text go back to patent publication US20220056019A1, “FARNESOID X RECEPTOR AGONISTS AND USES THEREOF” (Metacrine, Inc., priority 2018, published 2022).

pEC50: −log10 of the molar value.

The assay has as its target T1, hFXR (Homo sapiens, UniProt Q96RI1).
T1 construct: expressed in transfected cells; host or cells: CV-1 cells
T1 sequence (Q96RI1 1-486): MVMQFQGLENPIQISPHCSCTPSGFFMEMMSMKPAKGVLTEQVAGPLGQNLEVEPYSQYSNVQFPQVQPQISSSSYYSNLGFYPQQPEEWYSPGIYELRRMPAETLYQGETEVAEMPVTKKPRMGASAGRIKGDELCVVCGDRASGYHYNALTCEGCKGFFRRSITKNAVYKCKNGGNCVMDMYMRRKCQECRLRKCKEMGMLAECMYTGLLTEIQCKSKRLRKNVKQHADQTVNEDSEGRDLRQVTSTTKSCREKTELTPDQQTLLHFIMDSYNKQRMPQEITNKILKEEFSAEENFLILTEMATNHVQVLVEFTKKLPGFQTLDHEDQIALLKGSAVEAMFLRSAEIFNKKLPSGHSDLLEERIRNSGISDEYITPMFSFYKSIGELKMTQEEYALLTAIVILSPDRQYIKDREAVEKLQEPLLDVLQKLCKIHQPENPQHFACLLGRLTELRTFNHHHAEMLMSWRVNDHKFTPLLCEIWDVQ
T1 sequence (P19793 1-462 partner): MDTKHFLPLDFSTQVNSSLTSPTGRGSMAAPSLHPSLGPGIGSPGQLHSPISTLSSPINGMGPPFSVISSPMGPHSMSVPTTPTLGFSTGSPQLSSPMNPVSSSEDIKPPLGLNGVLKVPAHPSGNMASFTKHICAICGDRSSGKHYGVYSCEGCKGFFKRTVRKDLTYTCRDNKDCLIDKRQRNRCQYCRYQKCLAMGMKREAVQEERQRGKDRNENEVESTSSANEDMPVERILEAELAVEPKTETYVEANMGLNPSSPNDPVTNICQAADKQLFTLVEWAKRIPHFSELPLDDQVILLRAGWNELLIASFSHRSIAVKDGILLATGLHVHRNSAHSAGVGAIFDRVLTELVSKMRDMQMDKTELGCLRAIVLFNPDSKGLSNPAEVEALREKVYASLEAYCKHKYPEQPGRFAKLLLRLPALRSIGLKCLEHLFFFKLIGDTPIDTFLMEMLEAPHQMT
The assay is described as follows: In Vitro FXR Assay (TK): TK-ECRE-luc reporter in transfected CV-1 cells. The format is cell-based. As to conditions: 18 hrs incubation, luminescence. How it is done:
Example B-1: In Vitro FXR Assay (TK)
CV-1 cells were seeded at a density of 2,000,000 cells in a T175 flask with DMEM+10% charcoal double-stripped FBS and incubated at 37° C. in 5% CO2 for 18 h (O/N).
After 18 h of incubation, the medium in the T175 flask was changed with fresh DMEM+10% charcoal super-stripped serum. In a polypropylene tube, 2500 μL OptiMEM (Life Technologies, Cat #31985-062) was combined with expression plasmids for hFXR, hRXR, TK-ECRE-luc and pCMX-YFP. The tube was then briefly vortexed and incubated at room temperature for 5 minutes. Transfection reagent (X-tremeGENE HP from Roche, Cat #06 366 236 001) was added to the OptiMEM/plasmid mixture vortexed and incubated at room temperature for 20 minutes. Following incubation, the transfection reagent/DNA mixture complex was added to cells in the T175 flask and the cells were incubated at 37° C. in 5% CO2 for 18 h (O/N).
Compounds were serially diluted in DMSO and added to transfected CV-1 cells. The cells were then incubated for 18 hrs. The next day cells were lysed and examined for luminescence.
As a reminder, the pEC50 is the EC50 on a negative log10 scale, so that one unit is a factor of ten. For the compound `COc1ccc([C@H]2CC[C@H](CN(c3cc(-c4coc(C(C)C)n4)ccn3)C(=O)[C@H]3CC[C@H](OC(=O)NC4COC4)CC3)CC2)cc1C` [Compound 2.52, trans-4-((4-(2-Isopropyloxazol-4-yl)pyridin-2-yl)(((trans)-4-(4-methoxy-3-methylphenyl)cyclohexyl)methyl)carbamoyl)cyclohexyl oxetan-3-ylcarbamate], the pEC50 was at least 7.30.
As to `COc1ccc([C@H]2CC[C@H](CN(c3cccc(-c4cnn(C(C)C)c4)c3)C(=O)[C@H]3CC[C@H](NC(=O)OC4CCN(C)CC4)CC3)CC2)cc1C` [Compound 6.08, 1-Methylpiperidin-4-yl (trans-4-((3-(1-isopropyl-1H-pyrazol-4-yl)phenyl)((trans-4-(4-methoxy-3-methylphenyl)cyclohexyl)meth-yl)carbamoyl)cyclohexyl)carbamate], the pEC50 is 6.00 to 7.30.
`COc1ccc(C23CCC(CN(c4cc(-c5coc(C6CC6)n5)ccn4)C(=O)[C@H]4CC[C@H](OC(=O)N5CC(O)C5)CC4)(CC2)CC3)cc1C` [Compound 4.02, 4-((4-(2-Cyclopropyloxazol-4-yl)pyridin-2-yl)((4-(4-methoxy-3-methylphenyl)bicyclo[2.2.2]octan-1-yl)methyl)carbamoyl) cyclohexyl 3-hydroxyazetidine-trans-1-carboxylate] showed a negative logarithm of the EC50 (pEC50) of at least 7.30.
As to `COc1ccc(C23CCC(CN(c4cc(-c5cnn(C6(C)CCC6)c5)ccn4)C(=O)[C@H]4CC[C@H](OC(=O)N5CC(O)C5)CC4)(CC2)CC3)cc1C` [Compound 24, 4-(((4-(4-Methoxy-3-methylphenyl)bicyclo[2.2.2]octan-1-yl)methyl)(4-(1-(1-methylcyclobutyl)-1H-pyrazol-4-yl)pyridin-2-yl)carbamoyl)cyclohexyl trans-3-hydroxyazetidine-1-carboxylate], the negative logarithm of the EC50 (pEC50) is at least 7.30.
To `COc1ccc(C23CCC(CN(c4ccc(Cl)c(-c5cnn(C(C)C)c5)c4)C(=O)[C@H]4CC[C@H](OC(=O)N5CC(O)C5)CC4)(CC2)CC3)cc1C` [Compound 26.04, 4-((4-Chloro-3-(1-isopropyl-1H-pyrazol-4-yl)phenyl)((4-(4-methoxy-3-methylphenyl)bicyclo[2.2.2]octan-1-yl)methyl)carbamoyl)(trans-cyclohexyl) 3-hydroxyazetidine-1-carboxylate] belongs at least 7.30; to `COc1ccc([C@H]2CC[C@H](CN(c3cc(-c4cnn(C(F)(F)F)c4)ccn3)C(=O)[C@H]3CC[C@H](OC(=O)NCC(C)(C)O)CC3)CC2)cc1C` [Compound 2.58, trans-4-((((trans)-4-(4-Methoxy-3-methylphenyl)cyclohexyl)methyl) (4-(1-(trifluoromethyl)-1H-pyrazol-4-yl)pyridin-2-yl)carbamoyl)cyclohexyl (2-hydroxy-2-methylpropyl)carbamate], 6.00 to 7.30.
To `COc1ccc(C23CCC(CN(c4cc(-c5cnn(C(C)C)c5)ccn4)C(=O)[C@H]4CC[C@H](OC(=O)N5CCN(C)CC5)CC4)(CC2)CC3)cc1C` [Compound 4.15, 4-((4-(1-Isopropyl-1H-pyrazol-4-yl)pyridin-2-yl)((4-(4-methoxy-3-methylphenyl)bicyclo [2.2.2]octan-1-yl)methyl)carbamoyl)cyclohexyl 4-methylpiperazine-trans-1-carboxylate] belongs at least 7.30; to `COc1ccc(C23CCC(CN(c4cc(C5CCN(C(C)C)CC5)ccn4)C(=O)[C@H]4CC[C@H](OC(=O)N5CC(O)C5)CC4)(CC2)CC3)cc1C` [Compound 23.17, 4-((4-(1-Isopropylpiperidin-4-yl)pyridin-2-yl)((4-(4-methoxy-3-methylphenyl)bicyclo[2.2.2]octan-1-yl)methyl)carbamoyl)cyclo-hexyl trans-3-hydroxyazetidine-1-carboxylate], 6.00 to 7.30; to `COc1ccc(C23CCC(CN(c4cc(-c5coc(C6CC6)n5)ccn4)C(=O)[C@H]4CC[C@H](OC(=O)N5CC(CO)C5)CC4)(CC2)CC3)cc1C` [Compound 4.31, 4-((4-(2-Cyclopropyloxazol-4-yl)pyridin-2-yl)((4-(4-methoxy-3-methylphenyl)bicyclo[2.2.2]octan-1-yl)methyl)carbamoyl)(trans-cyclohexyl) 3-(hydroxymethyl)azetidine-1-carboxylate], at least 7.30.
With `COc1ccc([C@H]2CC[C@H](CN(c3cc(-c4cnn(C(C)C)c4)ccn3)C(=O)[C@H]3CC[C@H](OC(=O)NCC(C)(C)O)CC3)CC2)cc1C` [Compound 2.04, trans-4-((4-(1-Isopropyl-1H-pyrazol-4-yl)pyridin-2-yl) ((trans-4-(4-methoxy-3-methylphenyl)cyclohexyl)methyl)carbamoyl) cyclohexyl(2-hydroxy-2-methylpropyl)carbamate] the figure was at least 7.30.
Regarding `COc1ccc(C23CCC(CN(c4cccc(-c5cnn(C6(C)CCC6)c5)n4)C(=O)[C@H]4CC[C@H](OC(=O)N5CC(O)C5)CC4)(CC2)CC3)cc1C` [Compound 25.24, 4-(((4-(4-Methoxy-3-methylphenyl)bicyclo[2.2.2]octan-1-yl)methyl)(6-(1-(1-methylcyclobutyl)-1H-pyrazol-4-y)pyridin-2-yl)carbamoyl)cyclohexyl trans-3-hydroxyazetidine-1-carboxylate], the negative-log EC50 (pEC50) was at least 7.30.
The compound `COc1ccc(C23CCC(CN(c4cccc(-c5cnn(C(C)C)c5)n4)C(=O)[C@H]4CC[C@H](OC(=O)N5CC(O)C5)CC4)(CC2)CC3)cc1C` [Compound 23.25, 4-((6-(1-Isopropyl-1H-pyrazol-4-yl)pyridin-2-yl)((4-(4-methoxy-3-methylphenyl)bicyclo[2.2.2]octan-1-yl)methyl)carba-moyl)cyclohexyl trans-3-hydroxy-azetidine-1-carboxylate] showed a negative logarithm of the EC50 (pEC50) of at least 7.30.
The compound `CCc1ncc(-c2ccnc(N(C[C@H]3CC[C@H](c4ccc(OC)c(C)c4)CC3)C(=O)[C@H]3CC[C@H](OC(=O)N4CC(O)C4)CC3)c2)s1` [Compound 2.42, trans-4-((4-(2-Ethylthiazol-5-yl)pyridin-2-yl)((trans-4-(4-methoxy-3-methylphenyl)cyclohexyl)methyl)carbamoyl)cyclohexyl 3-hydroxyazetidine-1-carboxylate] showed a negative-log EC50 (pEC50) of at least 7.30.
For `COc1ccc(C23CCC(CN(c4cc(-c5cnn(C(C)C)c5)ccn4)C(=O)[C@H]4CC[C@H](OC(=O)NCCCCO)CC4)(CC2)CC3)cc1C` [Compound 4.50, 4-((4-(1-Isopropyl-1H-pyrazol-4-yl)pyridin-2-yl) ((4-(4-methoxy-3-methylphenyl)bicyclo [2.2.2]octan-1-yl)methyl)carbamoyl)cyclohexyl(4-hydroxybutyl)trans-carbamate], the negative-log EC50 (pEC50) was at least 7.30.
To `COc1ncc([C@H]2CC[C@H](CN(c3cc(-c4cnn(C(C)C)c4)ccn3)C(=O)[C@H]3CC[C@H](OC(=O)N4CCN(C)CC4)CC3)CC2)cc1Cl` [Compound 1.09, trans-4-((((trans)-4-(5-Chloro-6-methoxypyridin-3-yl)cyclohexyl)methyl)(4-(1-isopropyl-1H-pyrazol-4-yl)pyridin-2-yl)carbamoyl)cyclohexyl 4-methylpiperazine-1-carboxylate] belongs at least 7.30; to `COc1ccc(C23CCC(CN(c4cc(-c5coc(C(C)C)n5)ccn4)C(=O)[C@H]4CC[C@H](OC(=O)N5CC(S(C)(=O)=O)C5)CC4)(CC2)CC3)cc1C` [Compound 23.03, 4-((4-(2-Isopropyloxazol-4-yl)pyridin-2-yl)((4-(4-methoxy-3-methylphenyl)bicyclo[2.2.2]octan-1-yl)methyl)carbamoyl)(trans-cyclohexyl) 3-(methylsulfonyl)azetidine-1-carboxylate], at least 7.30; to `COc1ccc([C@H]2CC[C@H](CN(c3cccc(-c4cnn(C(C)C)c4)c3)C(=O)[C@H]3CC[C@H](NC(=O)COCCO)CC3)CC2)cc1C` [Compound 13.01, trans-4-(2-(2-Hydroxyethoxy)acetamido)-N-(3-(1-isopropyl-1H-pyrazol-4-yl)phenyl)-N-((trans-4-(4-methoxy-3-methylphenyl)cyclohexyl)meth-yl)cyclohexanecarboxamide], 6.00 to 7.30.
